Data taken from ChEMBL document CHEMBL1201862, “PubChem BioAssay data set” (2004).
The source made the active and inactive calls.

Tests used:
Vero = test: cytotoxicity of synthesized analogs in Vero cells, SAR follow-up, cytotoxicity control for West Nile virus antiviral project, cell-based, set II (AID 2402); assay type: functional; conditions: Chlorocebus sabaeus
[1] = molecular target: T1, Neuropeptides B/W receptor type 1 (Homo sapiens, UniProt P48145); test: Fluorescence-based dose response cell-based high throughput screening assay to identify antagonists of the G-protein coupled receptor 7 (GPR7). [Related pubchem assays: 1952 (Screening assay (GPR7 antagonists).), 1880 (Summary AID.)]; assay type: functional
T1 sequence (P48145 whole entry): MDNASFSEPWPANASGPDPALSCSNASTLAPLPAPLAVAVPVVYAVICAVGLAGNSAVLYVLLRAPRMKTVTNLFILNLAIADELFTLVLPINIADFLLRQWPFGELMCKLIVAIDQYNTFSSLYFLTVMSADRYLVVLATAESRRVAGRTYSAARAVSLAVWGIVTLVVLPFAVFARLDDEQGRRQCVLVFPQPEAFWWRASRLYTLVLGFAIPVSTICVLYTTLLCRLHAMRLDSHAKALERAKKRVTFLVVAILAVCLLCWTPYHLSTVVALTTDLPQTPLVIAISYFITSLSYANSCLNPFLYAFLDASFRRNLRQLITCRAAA

[2] = molecular target: Melanin-concentrating hormone receptor 1 (Homo sapiens, UniProt Q99705); test: Fluorescence-based counterscreen for antagonists of the G-protein coupled receptor 7 (GPR7): cell-based high throughput dose response assay to identify antagonists of the melanin-concentrating hormone receptor 1 (MCHR1).; assay type: functional
Sequence of Melanin-concentrating hormone receptor 1 (Q99705 whole entry, the tested form may be a part): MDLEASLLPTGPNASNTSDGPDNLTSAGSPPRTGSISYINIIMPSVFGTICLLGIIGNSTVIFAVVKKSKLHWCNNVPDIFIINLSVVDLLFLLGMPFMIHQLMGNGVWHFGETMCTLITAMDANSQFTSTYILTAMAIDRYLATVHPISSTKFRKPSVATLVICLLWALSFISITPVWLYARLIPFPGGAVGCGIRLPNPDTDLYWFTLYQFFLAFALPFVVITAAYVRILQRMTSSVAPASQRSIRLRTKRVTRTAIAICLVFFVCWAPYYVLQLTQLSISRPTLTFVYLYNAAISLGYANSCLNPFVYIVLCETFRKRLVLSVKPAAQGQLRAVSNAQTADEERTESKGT

Estrogen receptor = Estrogen receptor (Homo sapiens, UniProt P03372); test: potentiators of ERα–SRC-1 coactivator binding, dose response, biochemical, TR-FRET, ERα LBD (AID 737)
Sequence of Estrogen receptor (P03372 whole entry, the tested form may be a part): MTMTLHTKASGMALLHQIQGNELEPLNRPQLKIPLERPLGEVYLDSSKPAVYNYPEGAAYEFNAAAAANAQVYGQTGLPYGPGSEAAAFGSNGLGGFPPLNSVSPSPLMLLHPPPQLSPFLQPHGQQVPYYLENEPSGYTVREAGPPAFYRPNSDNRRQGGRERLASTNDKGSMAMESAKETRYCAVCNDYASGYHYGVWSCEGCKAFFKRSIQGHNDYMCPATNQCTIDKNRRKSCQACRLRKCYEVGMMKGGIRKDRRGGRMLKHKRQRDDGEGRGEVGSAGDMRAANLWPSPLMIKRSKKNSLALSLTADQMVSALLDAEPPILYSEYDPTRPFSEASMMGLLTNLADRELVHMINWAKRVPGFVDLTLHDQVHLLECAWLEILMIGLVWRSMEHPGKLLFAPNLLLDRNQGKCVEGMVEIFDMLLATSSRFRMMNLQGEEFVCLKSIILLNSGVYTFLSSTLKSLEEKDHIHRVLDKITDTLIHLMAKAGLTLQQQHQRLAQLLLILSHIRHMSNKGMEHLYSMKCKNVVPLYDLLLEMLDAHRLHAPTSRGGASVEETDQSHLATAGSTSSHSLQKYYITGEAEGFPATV

[3] = molecular target: T2, High affinity choline transporter 1 (Homo sapiens, UniProt Q9GZV3); test: CHT inhibitors, dose response, cell-based, 5-point CRC, membrane potential dye (AID 504840); assay type: functional
T2 sequence (Q9GZV3 whole entry): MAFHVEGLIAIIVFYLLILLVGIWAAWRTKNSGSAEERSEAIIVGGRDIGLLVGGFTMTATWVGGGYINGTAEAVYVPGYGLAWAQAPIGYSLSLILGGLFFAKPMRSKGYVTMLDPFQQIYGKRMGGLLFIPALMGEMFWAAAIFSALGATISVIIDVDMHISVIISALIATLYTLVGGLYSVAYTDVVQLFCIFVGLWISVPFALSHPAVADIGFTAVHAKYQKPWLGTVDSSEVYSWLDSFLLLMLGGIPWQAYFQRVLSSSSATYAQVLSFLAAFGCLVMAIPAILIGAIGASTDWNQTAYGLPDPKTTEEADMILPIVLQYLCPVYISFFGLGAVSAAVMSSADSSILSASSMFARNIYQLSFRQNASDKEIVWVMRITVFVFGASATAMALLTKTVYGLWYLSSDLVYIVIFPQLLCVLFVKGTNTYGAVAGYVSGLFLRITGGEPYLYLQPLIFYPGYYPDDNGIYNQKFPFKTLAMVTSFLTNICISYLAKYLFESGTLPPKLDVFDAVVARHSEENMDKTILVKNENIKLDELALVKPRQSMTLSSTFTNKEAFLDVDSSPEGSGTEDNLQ

[4] = molecular target: T2, High affinity choline transporter 1; test: CHT inhibitors, dose response, cell-based, 10-point CRC, membrane potential dye (AID 588401); assay type: functional;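 further: membrane potential dye fluorescence of choline-evoked depolarization via CHT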
[5] = molecular target: E3 ubiquitin-protein ligase Mdm2 (Homo sapiens, UniProt Q00987); test: enhancers of MDM2-luciferase reporter signal, concentration-effect titration, project on inhibitors of MDM2 ubiquitin ligase, cellular assay, luminescent readout, 384-well plate format (AID 1394); assay type: functional;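 further: MDM2 E3 inhibitors raise luminescence so EC50 is for signal enhancement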
Sequence of E3 ubiquitin-protein ligase Mdm2 (Q00987 whole entry): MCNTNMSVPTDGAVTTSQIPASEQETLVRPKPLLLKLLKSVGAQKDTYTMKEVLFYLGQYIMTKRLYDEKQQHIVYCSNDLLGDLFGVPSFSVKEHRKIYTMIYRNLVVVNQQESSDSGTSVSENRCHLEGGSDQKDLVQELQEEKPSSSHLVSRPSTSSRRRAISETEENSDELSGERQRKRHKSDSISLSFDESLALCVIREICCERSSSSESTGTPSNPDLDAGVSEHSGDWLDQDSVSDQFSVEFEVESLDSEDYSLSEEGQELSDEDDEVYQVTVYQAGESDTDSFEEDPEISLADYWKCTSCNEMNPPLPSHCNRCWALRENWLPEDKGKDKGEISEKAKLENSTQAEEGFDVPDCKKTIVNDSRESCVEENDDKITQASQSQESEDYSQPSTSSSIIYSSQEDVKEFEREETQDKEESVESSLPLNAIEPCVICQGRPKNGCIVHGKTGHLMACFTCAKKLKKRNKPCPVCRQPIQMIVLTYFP

[6] = molecular target: 5-hydroxytryptamine receptor 1A (Homo sapiens, UniProt P08908); assay type: functional
Sequence of 5-hydroxytryptamine receptor 1A (P08908 whole entry): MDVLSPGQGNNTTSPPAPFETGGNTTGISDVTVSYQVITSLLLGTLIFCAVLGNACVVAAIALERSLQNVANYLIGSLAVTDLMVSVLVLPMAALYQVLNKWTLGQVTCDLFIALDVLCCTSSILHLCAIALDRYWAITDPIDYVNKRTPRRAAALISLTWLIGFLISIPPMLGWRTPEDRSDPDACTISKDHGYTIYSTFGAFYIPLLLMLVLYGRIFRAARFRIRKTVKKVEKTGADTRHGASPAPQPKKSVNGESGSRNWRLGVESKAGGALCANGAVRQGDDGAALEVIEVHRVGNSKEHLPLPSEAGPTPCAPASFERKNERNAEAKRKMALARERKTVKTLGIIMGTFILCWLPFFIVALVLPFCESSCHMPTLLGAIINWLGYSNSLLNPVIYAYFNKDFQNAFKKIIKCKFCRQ

Bcl-2-related protein A1 [7] = molecular target: T3, Bcl-2-related protein A1 (Mus musculus, UniProt Q07440); test: Bfl-1 binding inhibitors, SAR follow-up, biochemical, fluorescence polarization (AID 1070)
T3 sequence (Q07440 whole entry): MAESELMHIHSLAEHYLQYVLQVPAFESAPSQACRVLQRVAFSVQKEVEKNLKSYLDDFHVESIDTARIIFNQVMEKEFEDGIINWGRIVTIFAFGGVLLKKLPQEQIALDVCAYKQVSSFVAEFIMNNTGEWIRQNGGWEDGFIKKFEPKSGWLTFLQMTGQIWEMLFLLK

Bcl-2-related protein A1 [8] = molecular target: T3, Bcl-2-related protein A1; test: Bfl-1 inhibitors blocking BH3 peptide binding, confirmation, biochemical, TR-FRET, mouse Bfl-1 (AID 621);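 further: TR-FRET binding of GST-Bfl-1 to FITC-labelled Bid peptide via terbium antibody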
[9] = M. tuberculosis growth inhibition, HTS (AID 449762); assay type: functional
[10] = HEK293T cell cytotoxicity, dose response, cytotoxicity control, CellTiter-Glo luminescence, dry powder, set 20 (AID 1117293); assay type: functional, cell-based; conditions: HEK293
[11] = A549 cell cytotoxicity, dose response, cytotoxicity control, plate reader, dry powder, set 6 (AID 743312); assay type: functional, cell-based
[12] = HepG2 cell cytotoxicity, dose response, cytotoxicity control, plate reader, dry powder, set 6 (AID 743311); assay type: functional, cell-based
cells = conditions: HEK293

CC1CC(C)CN(C(=O)CSc2nc3ccccc3c(=O)n2-c2ccc(F)cc2)C1 (stereo not given)
CC50 (Vero): > 100 µM (active)

CCC(C)(C(=O)NC1CCCC1)N(Cc1ccco1)C(=O)c1ccc2c(c1)OCO2 (stereo not given)
IC50 [1]: > 43.8 µM (not active)
IC50 [2]: > 43.8 µM (not active)

COCCCn1c2nc3ccccc3nc2c2c(=O)n(-c3ccccc3OC)c(C)nc21
EC50 (Estrogen receptor): 12.7 µM (not active)

CCOC(=O)c1sc(=S)n(-c2ccccc2)c1N(C(C)=O)C(C)=O
IC50 [3]: 8.98 µM (active)
IC50 [4]: 5.01 µM (active)
EC50 [5]: 0.29 µM (not active)

COC(=O)CC(=O)Cc1nc(N)nc(Nc2ccc(C)c(C)c2)n1
EC50 [6]: > 50 µM (not active)

Cc1ccc(-n2nnc(-c3cc4ccccc4nc3Cl)n2)cc1
IC50 (Bcl-2-related protein A1 [7]): > 100 µM (not active)
IC50 (Bcl-2-related protein A1 [8]): > 100 µM (not active)

CCOC(=O)c1ccc(NC(=O)CSc2ccc(-c3cccnc3)nn2)cc1
IC50 [9]: > 100 µM (active)

N#Cc1ccc(S(=O)(=O)Nc2cc(C(F)(F)F)ccc2N2CCCCC2)cc1
AC50 [10]: 46.1 µM (active)

Cc1cc2ncn(CCOc3ccc4c(c3)CCC4)c2cc1C
AC50 [11]: 24.1 µM (active)
AC50 [12]: > 52 µM (inactive)
AC50 (cells): 33 µM (active)
